For orientation: EC50 means the concentration giving half of the maximal effect. Low readings indicate an effect from little substance, high ones a need for much substance.

The subject of this assay is SARS-CoV-2. As to conditions: 48 h; for inhibition of viral infection: 80 μM peptide, Vero E6 cells.

Where a SMILES comes first, the peptide text is derived from it. Where no end group is shown, it is not given here.

HPVTGQF [HF7, HPVTGQF]: the “inhibition of viral infection” value is listed as 89% and the 50% effective concentration (EC50) stood at 11.4 µM.

As to DQTKFPIVNAEL-OH [DL12], the “inhibition of viral infection” value is 99% and it took 5 µM to reach a half-maximal effect (EC50).

SDWKTD [SD6, SDWKTD]: the “inhibition of viral infection” value amounted to 98% and the half-maximal effective concentration (EC50) came to 6.4 µM.

Consider `C[C@H](NC(=O)[C@@H](N)CCCNC(=N)N)C(=O)NCC(=O)N[C@@H](CCCCN)C(=O)O` [RK4, RAGK] (H-RAGK-OH; N-terminus assumed), for which the “inhibition of viral infection” value was determined as 99% and the EC50 is 10 µM.

(Values after US12076364B2, “Use of interference peptide in preparation of anti-SARS-CoV-2 medicament” (KUNMING INSTITUTE OF ZOOLOGY, CHINESE ACADEMY OF SCIENCES, priority 2020, dated 2024).)
